Reference: patent US4221919A, “Antiinflammatory substituted phenylacetic acids” (SPOFA, United Pharmaceutical Works, priority 1974, dated 1980)
Read-outs that look alike come from different tables or passages of the source.

What was measured:
[1] = test system: kaolin-induced edema of rat hind limb; assay: kaolin-induced edema of rat hind limb (antiinflammatory activity, gavage); format: in vivo, rat (Wistar strain, Konarovice breed, female); details: po, 1 h, by gavage, once, one hour before kaolin injection, vs untreated control group, footnotes mark + statistically significant, n not statistically significant
Description: (§1) As experimental models of inflammation, serving for testing the antiinflammatory activity, there were used the method of kaolin-induced edema of rat hind limb (Hillebrecht J.: Arzneim-Forsch. 9, p. 625, 1959). Kaolin edema of rat hind limb was induced by subplantar injection of 10% kaolin suspension dosed 0.1 ml per animal. The substances tested were administered once, one hour before the injection of kaolin, by gavage with the aid of a metallic gastric sound in the form of aqueous suspension with gum acacia added, in volumes of 1 ml/100 g body weight, equivalent to doses of 25 and 100 mg/kg. The edema of the right hind limb was measured volumetrically on a Volumometer Ugo Basile at hours 1; 1.5; 3; 4.5 and 6 after injection of kaolin. Statistical evaluation was always made in comparison with an untreated control group, and the efficacy of each compound was expressed in percent inhibition of inflammation. Experimental animals: female rats, Wistar strain, Konarovice breed, weighing 130-150 g, experimental groups of 6 animals each. Pelleted diet and drinking water were served ad libitum. This phase of limb edema induced by injection of kaolin suspension represents an acute phase of inflammatory reaction. In addition, orientative tests for oral acute toxicity were carried out with the compounds tested in female mice, S strain, Konarovice breed, weighing 16-20 g. Each compound was administered once by gavage, dosed 1 g/kg, in the form of aqueous suspensions with gum acacia added. Experimental groups of 5 animals each were employed. The deaths were checked for 1 week after administration.

[2] = orientative test for oral acute toxicity in female mice; details: mouse, in vivo
Description: as §1

[3] = oral (gavage), single dose 1 g/kg, deaths checked for 1 week, read-out: LD50 oral mice

O=C(O)Cc1ccc(OCc2ccc(Cl)cc2)c(Cl)c1 [3-Chloro-4-(4'-chlorobenzyloxy) phenylacetic acid]
inhibition in vivo at 25 mg/kg [1]: 28% | LD50 at 168 h [2, 3]: > 1000 mg/kg

O=C(O)Cc1ccc(OCc2ccccc2)c(Cl)c1 [3-Chloro-4-benzyloxyphenylacetic acid, 3-chloro-4-benzyloxyphenylacetic acid]
inhibition in vivo at 25 mg/kg [1]: 39% | LD50 at 168 h [2, 3]: > 1000 mg/kg

COc1ccc(COc2ccc(CC(=O)O)cc2Cl)cc1Cl [3-chloro-4-(3'-chloro-4'-methoxybenzyloxy) phenylacetic acid]
inhibition in vivo at 25 mg/kg [1]: 17% | LD50 at 168 h [2, 3]: > 1000 mg/kg

CC(C)Oc1ccc(COc2ccc(CC(=O)O)cc2Cl)cc1 [3-chloro-4-(4'-isopropoxybenzyloxy) phenylacetic acid]
LD50 at 168 h [2, 3]: < 1000 mg/kg

CC(C(=O)O)c1ccc(OCc2ccccc2)c(Cl)c1 (stereo not drawn) [α-(3-Chloro-4-benzyloxyphenyl)-propionic acid, reference compound]
inhibition in vivo at 25 mg/kg [1]: 14% | LD50 at 168 h [2, 3]: 1000 mg/kg

COc1ccc(COc2ccc(C(C)C(=O)O)cc2Cl)cc1Cl (stereo not drawn) [α-[3-Chloro-4-(3'-chloro-4'-methoxybenzyloxy)phenyl] propionic acid, reference compound]
LD50 at 168 h [2, 3]: < 1000 mg/kg

CC(C(=O)O)c1ccc(OCc2ccc(Cl)cc2)c(Cl)c1 (stereo not drawn) [α-[3-Chloro-4-(4'-chlorobenzyloxy)-phenyl] propionic acid, reference compound]
inhibition in vivo at 25 mg/kg [1]: 25% | LD50 at 168 h ([2]; po): > 1000 mg/kg

CC(C)Oc1ccc(COc2ccc(C(C)C(=O)O)cc2Cl)cc1 (stereo not drawn) [α-[3-Chloro-4-(4'-isopropoxybenzyloxy)phenyl] propionic acid, reference compound]
LD50 at 168 h [2, 3]: < 1000 mg/kg
